Measurements as given in ChEMBL document CHEMBL5356935, “Discovery of rigid biphenyl Plasmodium falciparum DHFR inhibitors using a fragment linking strategy” (RSC Med Chem, 2023).
Active and inactive are the calls of the source. The rule behind the calls is not given here.

Columns and labels:
[1] = Metabolic stability in human liver microsomes assessed as intrinsic clearance measured upto 60 mins in presence of NADPH by LC-MS/MS analysis; assay type: ADME, Microsome; details: read-out: CLH
[2] = target: T1, Dihydrofolate reductase (Homo sapiens, UniProt P00374); experiment: Inhibition of human DHFR using DHF as substrate assessed as inhibition constant in presence of NADPH by UV-Vis spectrometry analysis
T1 sequence (P00374 whole entry): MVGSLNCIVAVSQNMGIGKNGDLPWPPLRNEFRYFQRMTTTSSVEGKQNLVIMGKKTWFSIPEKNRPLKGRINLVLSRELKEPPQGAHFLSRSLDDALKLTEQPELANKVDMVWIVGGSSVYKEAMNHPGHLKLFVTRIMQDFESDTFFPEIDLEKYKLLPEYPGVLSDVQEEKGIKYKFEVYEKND

[3] = target: Bifunctional dihydrofolate reductase-thymidylate synthase (Plasmodium falciparum K1, UniProt P13922); experiment: Inhibition of wild type Plasmodium falciparum DHFR using DHF as substrate assessed as inhibition constant in presence of NADPH by UV-Vis spectrometry analysis
Bifunctional dihydrofolate reductase-thymidylate synthase, sequence (P13922 whole entry): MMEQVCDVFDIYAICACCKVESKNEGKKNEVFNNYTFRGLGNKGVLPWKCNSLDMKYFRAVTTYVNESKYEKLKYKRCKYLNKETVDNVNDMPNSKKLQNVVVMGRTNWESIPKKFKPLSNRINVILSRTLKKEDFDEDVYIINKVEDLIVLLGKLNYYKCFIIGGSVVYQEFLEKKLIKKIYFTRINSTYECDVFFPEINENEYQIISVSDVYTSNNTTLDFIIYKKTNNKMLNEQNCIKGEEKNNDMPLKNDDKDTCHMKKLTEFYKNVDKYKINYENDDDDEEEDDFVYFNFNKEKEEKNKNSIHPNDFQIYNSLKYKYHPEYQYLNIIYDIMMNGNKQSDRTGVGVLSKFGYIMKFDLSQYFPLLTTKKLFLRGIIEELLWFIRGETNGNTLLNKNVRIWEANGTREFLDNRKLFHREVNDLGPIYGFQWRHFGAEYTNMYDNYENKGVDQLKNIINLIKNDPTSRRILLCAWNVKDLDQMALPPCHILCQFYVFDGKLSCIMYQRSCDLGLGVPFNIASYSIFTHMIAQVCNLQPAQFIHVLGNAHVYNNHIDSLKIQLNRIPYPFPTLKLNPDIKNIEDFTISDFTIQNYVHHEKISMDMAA

[4] = Kinetic solubility of the compound at pH 4.5 at 200 uM incubated for 2 hrs under shaking condition by HPLC analysis; assay type: physicochemical; details: buffer, read-out: Kinetic_solubility
[5] = system: Plasmodium falciparum; experiment: Antiplasmodial activity against PYR-resistant Plasmodium falciparum V1/S encoding QM DHFR infected in human erythrocytes assessed as inhibition of parasite growth by [3H]-hypoxanthine incorporation assay; assay type: functional, organism-based; details: Erythrocyte
[6] = Kinetic solubility of the compound at pH 2.0 at 200 uM incubated for 2 hrs under shaking condition by HPLC analysis; assay type: physicochemical; details: buffer, read-out: Kinetic_solubility
[7] = Kinetic solubility of the compound at pH 7.4 at 200 uM incubated for 2 hrs under shaking condition by HPLC analysis; assay type: physicochemical; details: buffer, read-out: Kinetic_solubility
[8] = Kinetic solubility of the compound at pH 6.5 at 200 uM incubated for 2 hrs under shaking condition by HPLC analysis; assay type: physicochemical; details: buffer, read-out: Kinetic_solubility
[9] = system: Plasmodium falciparum; experiment: Antiplasmodial activity against PYR-sensitive Plasmodium falciparum TM4/8.2 encoding WT DHFR infected in human erythrocytes assessed as inhibition of parasite growth by [3H]-hypoxanthine incorporation assay; assay type: functional, organism-based; details: TM4/8.2, Erythrocyte
[10] = Distribution coefficient, log D of compound in n-octanol and saturated PBS at pH 7.4 at 100 uM incubated for 2 hrs under shaking condition by HPLC analysis; assay type: physicochemical
[11] = Cytotoxicity against African green monkey Vero cells assessed as cell growth inhibition incubated for 72 hrs by sulforhodamine B assay; assay type: toxicity, cell-based, Chlorocebus sabaeus
[12] = Metabolic stability in rat liver microsomes assessed as intrinsic clearance measured upto 60 mins in presence of NADPH by LC-MS/MS analysis; assay type: ADME, Microsome; details: read-out: CLH
[13] = Inhibition of Plasmodium falciparum DHFR N51I/C59R/S108N/I164L quadruple mutant using DHF as substrate assessed as inhibition constant in presence of NADPH by UV-Vis spectrometry analysis
[14] = target: Bifunctional dihydrofolate reductase-thymidylate synthase (Plasmodium falciparum K1) (UniProt P13922); experiment: Binding affinity to Plasmodium falciparum DHFR assessed as binding constant (koff) by surface plasmon resonance analysis
Bifunctional dihydrofolate reductase-thymidylate synthase (Plasmodium falciparum K1), sequence (P13922 whole entry, looked up): as the sequence (P13922 whole entry) above

[15] = system: Plasmodium falciparum; experiment: Inhibition of Plasmodium falciparum DHFR N51I/C59R/S108N/I164L quadruple mutant assessed as fold change in inhibition in presence of 2,4-diamino-6-ethylpyrimidin-5-ol
[16] = system: Plasmodium falciparum; experiment: Inhibition of Plasmodium falciparum DHFR N51I/C59R/S108N/I164L quadruple mutant using DHF as substrate at 500 uM in presence of NADPH by UV-Vis spectrometry analysis relative to control
[17] = target: T2, Dihydrofolate reductase (Homo sapiens) (UniProt P00374); experiment: Inhibition of human DHFR at 500 uM by UV-Vis spectrometry analysis
T2 sequence (whole entry): T1 sequence (P00374 whole entry)

[18] = target: Bifunctional dihydrofolate reductase-thymidylate synthase (Plasmodium falciparum K1) (UniProt P13922); experiment: Inhibition of wild type Plasmodium falciparum DHFR using DHF as substrate at 500 uM in presence of NADPH by UV-Vis spectrometry analysis
[19] = target: Bifunctional dihydrofolate reductase-thymidylate synthase (Plasmodium falciparum K1) (UniProt P13922); experiment: Binding affinity to Plasmodium falciparum DHFR assessed as binding constant (kon) by surface plasmon resonance analysis
[20] = target: Bifunctional dihydrofolate reductase-thymidylate synthase (Plasmodium falciparum K1) (UniProt P13922); experiment: Inhibition of wild type Plasmodium falciparum DHFR using DHF as substrate at 500 uM in presence of NADPH by UV-Vis spectrometry analysis relative to control
[21] = target: Bifunctional dihydrofolate reductase-thymidylate synthase (Plasmodium falciparum K1) (UniProt P13922); experiment: Binding affinity to Plasmodium falciparum DHFR assessed as faster binding and release kinetics by surface plasmon resonance analysis
[22] = system: Plasmodium falciparum; experiment: Inhibition of Plasmodium falciparum DHFR N51I/C59R/S108N/I164L quadruple mutant using DHF as substrate at 500 uM in presence of NADPH by UV-Vis spectrometry analysis
[23] = system: Plasmodium falciparum; experiment: Binding affinity to Plasmodium falciparum apo-DHFR N51I/C59R/S108N/I164L quadruple mutant assessed as change in melting temperature by […] analysis

`CCc1nc(N)nc(N)c1Cc1ccc(-c2cccc(C(=O)OC)c2)cc1.Cl` showed a microsomal CLint [1] of 625 µL/min/mg, a Ki [2] of 0.14 µM and a Ki [3] of 0.00029 µM. It also gave a solubility kinetic at 2 h, 200 µM [4] of 183 µM, an IC50 [5] of 34.5 µM and a solubility kinetic at 2 h, 200 µM [6] of 186 µM. For the same compound, the solubility kinetic at 2 h, 200 µM [7] was 8.1 µM, the solubility kinetic at 2 h, 200 µM [8] was 8.8 µM and the IC50 [9] was 0.72 µM. For the same compound, the logD at 2 h, 100 µM [10] was 3.37, the IC50 at 72 h [11] was 19.3 µM and the microsomal CLint [12] was 100 µL/min/mg. For the same compound, the Ki [13] was 0.00211 µM.
`O=C(O)c1ccc(-c2cnco2)cc1` showed a K [14] of 0.013 s⁻¹, a fold change (FC) [15] of 2.6 and an inhibition [16] of 11.3%. The inhibition [17] was “inactive”, the inhibition [18] was “inactive” and the K [19] was 5.26 M⁻¹ s⁻¹.
In the case of `CCc1nc(N)nc(N)c1Cc1cccc(-c2cccc(C(=O)OC)c2)c1`, the Ki [2] is reported as 0.0194 µM, the Ki [3] is reported as 0.00021 µM and the IC50 [5] is reported as 40 µM. The IC50 [9] was 4.95 µM, the logD at 2 h, 100 µM [10] was 3.2 and the IC50 at 72 h [11] was 21.7 µM. It also gave a Ki [13] of 0.00058 µM.
With `COc1cccc(-c2ccc(C(=O)O)cc2)c1` the inhibition [20] was 37.8%, the Activity [21] was “Active” and the fold change (FC) [15] was 2. For the same compound, the inhibition [16] was 45.8% and the inhibition [17] was “inactive”.
For `COc1cc(Cc2cnc(N)nc2N)cc(OC)c1OC` [TRIMETHOPRIM], the Ki [13] was 0.0491 µM.
`CCc1nc(N)nc(N)c1Cc1cccc(-c2ccc(C(=O)OC)cc2)c1` showed a Ki [2] of 0.0166 µM, a Ki [3] of 0.00025 µM and an IC50 [5] greater than 50 µM. The IC50 [9] was 34.1 µM, the logD at 2 h, 100 µM [10] was 3.24 and the IC50 at 72 h [11] was greater than 50 µM. The Ki [13] was 0.00104 µM.
For `O=C(O)c1ccccc1-c1ccncc1`, the inhibition [22] was “inactive”, the Activity [21] was “Active” and the inhibition [17] was “inactive”. For the same compound, the inhibition [18] was “inactive”.
`CCc1nc(N)nc(N)c1Cc1cccc(-c2cccc(C(=O)O)c2)c1` gave a Ki [2] of 0.108 µM, a Ki [3] of 0.00023 µM and an IC50 [5] of 35 µM. The IC50 [9] was 4.14 µM, the IC50 at 72 h [11] was greater than 50 µM and the Ki [13] was 0.00081 µM.
`O=C(O)c1ccc(-c2ccccc2)cn1` gave a ΔTm [23] of -1.2 °C, a K [14] of 0.037 s⁻¹ and an inhibition [16] of 7%. For the same compound, the inhibition [17] was “inactive”, the inhibition [18] was “inactive” and the K [19] was 24.5 M⁻¹ s⁻¹.
With `O=C(O)c1ccccc1-c1ccco1` the inhibition [20] was 6.5%, the K [14] was 0.012 s⁻¹ and the inhibition [16] was 7.7%. The inhibition [17] was “inactive” and the K [19] was 40 M⁻¹ s⁻¹.
For `CCc1nc(N)nc(N)c1Cc1ccc(-c2ccc(C(=O)O)cc2)cc1.Cl`, the microsomal CLint [1] was less than 3 µL/min/mg, the Ki [2] was 0.214 µM and the Ki [3] was 0.00159 µM. It also gave a solubility kinetic at 2 h, 200 µM [4] of 8.8 µM, an IC50 [5] greater than 50 µM and a solubility kinetic at 2 h, 200 µM [6] of 176 µM. The solubility kinetic at 2 h, 200 µM [7] was 11.7 µM, the solubility kinetic at 2 h, 200 µM [8] was 11.4 µM and the IC50 [9] was 11.2 µM. It also gave a logD at 2 h, 100 µM [10] of 0.332, an IC50 at 72 h [11] greater than 50 µM and a microsomal CLint [12] of less than 3 µL/min/mg. The Ki [13] was 0.0611 µM.
In the case of `O=C(O)c1cccc(-c2cccnc2)c1`, the K [14] is reported as 0.002 s⁻¹, the inhibition [16] is reported as 3.89% and the inhibition [17] is reported as “inactive”. For the same compound, the inhibition [18] was “inactive” and the K [19] was 16.3 M⁻¹ s⁻¹.
`CCc1nc(N)nc(N)c1Cc1cccc(-c2ccc(C(=O)O)cc2)c1.Cl.Cl` showed a Ki [2] of 0.022 µM, a Ki [3] of 0.00048 µM and a solubility kinetic at 2 h, 200 µM [4] of 19.2 µM. The IC50 [5] was greater than 50 µM, the solubility kinetic at 2 h, 200 µM [6] was 188 µM and the solubility kinetic at 2 h, 200 µM [7] was 30.8 µM. For the same compound, the solubility kinetic at 2 h, 200 µM [8] was 19.2 µM, the IC50 [9] was 8.55 µM and the IC50 at 72 h [11] was greater than 50 µM. It also gave a Ki [13] of 0.0033 µM.
With `O=C(O)c1ccc(-c2ccccc2F)o1` the ΔTm [23] was -1.8 °C, the K [14] was 0.001 s⁻¹ and the inhibition [16] was 2.6%. For the same compound, the inhibition [17] was “inactive”, the inhibition [18] was “inactive” and the K [19] was 7.61 M⁻¹ s⁻¹.
